For assay [1], the system named is male ICR (Institute of Cancer Research) mice. The experiment in a line: Sedation (decreased locomotor activity) in mice. Type of assay: in vivo. Particulars: intravenous injection; for ED50: Mus musculus, read-out: Locomotion Inhibition, potency (ED50 value). As to the method: (§1) 5'-azido-THC was evaluated in vivo and compared to the parent compound (-)-Δ^8 -THC for cannabimimetic activity. Both analogs were tested in male ICR (Institute of Cancer Research) mice (Harlan, Frederick, Md.) following intravenous injection, for their abilities to produce sedation (decreased locomotor activity) and catalepsy (induction of ring immobility) as measures of drug-induced behavioral effects. They were also evaluated in the same mice for their abilities to produce hypothermia and antinociceptive activity in the mouse tail-flick assay.
(§2) The results obtained are shown in Table I. Dose-response data were analyzed statistically by ANOVA, and the potency (ED50 value) and efficacy (maximum effect) were determined. The maximum effects given represent percent inhibition (of locomotor activity), ° C. (of hypothermia), percent immobility (of catalepsy) and percent MPE (maximum possible effect of latency of antiociception procedure).
(§3) This evaluation was performed by methods described in M. D. Compton et al., J. Med. Chem., 34:3310 (1991), A. Makriyannis et al., Life Sci., 47:2173 (1990), and A. Charalandous et al., Pharmacol. Biochem. Behav., 40:509 (1991).

Assay [2] shares this test system. The experiment in a line: Hypothermia in mice. In kind it is in vivo. Particulars: for ED50: Mus musculus, read-out: Hypothermia (Δtemperature), potency (ED50 value); for ED50 / Hypothermia (Δtemperature), efficacy (maximum effect): intravenous injection, mice. The protocol:
as §1, §2, §3

Assay [3] has the same test system. Briefly: Catalepsy (induction of ring immobility) in mice. Type of assay: in vivo. Particulars: for ED50: Mus musculus, read-out: Catalepsy Immobility, potency (ED50 value); for ED50 / Catalepsy Immobility, efficacy (maximum effect), percent immobility: intravenous injection, mice. The protocol:
as §1, §2, §3

Assay [4] shares this test system. Briefly: Antinociceptive activity in the mouse tail-flick assay. Particulars: intravenous injection; for ED50: Mus musculus, read-out: Antinociception MPE, potency (ED50 value). Type of assay: in vivo. As to the method:
as §1, §2, §3

In assay [5] the target is T1, cannabinoid receptor (Rattus norvegicus, UniProt P20272).
T1 construct: membrane preparations from rat forebrains; from tissue; host or cells: rat forebrain membranes
Briefly: Receptor binding assay, [^3 H]CP-55,940, rat forebrain membrane, Tris buffer with bovine serum albumin. Particulars: for affinity for the cannabinoid receptor (in words): demonstrated by IC50 values; for IC50: rat forebrain membrane, 0.8 nM [^3 H]CP-55,940, 0.1% bovine serum albumin, pH 7.4, 1 hour at 30° C. The protocol:
The affinity of compositions of this invention for cannabinoid binding sites was tested by using membrane preparations from rat forebrains. A composition is tested by incubating various concentrations of the composition with approximately 50 μg of rat forebrain membrane, 20 mM Tris Buffer, 3 mM MgCl2, 1 mM EDTA (pH, 7.4) containing 0.1% bovine serum albumin, and 0.8 nM of the cannabinoid radioligand [^3 H]CP-55,940, (Dupont-NEN). Assays were incubated in Regisil-treated test tubes for 1 hour at 30° C. and were subsequently filtered on GF/C filters using a Brandell M-24 Cell Harvester. Following four washes with 20 mM Tris buffer (pH 7.4) and 3 mM MgCl2, the GF/C filters were collected, and shaken for 1 hour with 2 mL of 0.1% SDS. Ligand binding was counted on a Beckman liquid scintillation counter.
Non-specific binding was assessed from tubes containing 250 nM desacetyllevo-nantradol by the method described in W. A. Devane et al., Determination and Characterization of a Cannabinoid Receptor in Rat Brain, Mol. Pharmacol., 34:605 (1988). Data were collected from 3 experiments performed on 11-hydroxy-7'-azido-1',1'-dimethylheptyl-Δ^8 -THC and on 11-hydroxy-7'-isothiocyanate-1',1'-dimethyl-heptyl-Δ^8 -THC, each.

Assay [6] concerns the target T1, cannabinoid receptor. The experiment in a line: Receptor inactivation test (equilibration / photoirradiation), rat forebrain membranes. In kind it is binding. Particulars: 1 hour at 30° C., azide: UV irradiated 13 minutes, washed. The protocol:
The ability of affinity ligands to inactivate the cannabinoid receptor in vitro was tested through photoirradiation experiments. All procedures involving affinity ligands were conducted in the dark using only a safety light. Rat forebrain membranes (1-3 mg) in 20 mM Tris Buffer, 3 mM MgCl2, and 1 mM EDTA (pH 7.4) were incubated with an appropriate amount of either 11-hydroxy-7'-azido-1',1'-dimethylheptyl-Δ^8 -THC or 11-hydroxy-7'-isothiocyanate-1',1'-dimethyl-heptyl-Δ^8 -THC, in a six-well culture plate for 1 hour at 30° C. At the end of the equilibration membranes incubated with 11-hydroxy-7'-azido-1',1'-dimethylheptyl-Δ^8 -THC were placed on ice and irradiated for 13 minutes with UV light. Membranes incubated with either of the two compounds were then pelleted using a bench top microcentrifuge. The pellets were subsequently washed at least three times with the working buffer containing 1 mg/mL bovine serum albumin, allowing at least 10 minutes between each wash for equilibration. The final pellets were resuspended in the working buffer and assayed for cannabinoid binding activity by the method of Devane et al., referenced above.

Assay [7] concerns the target T1, cannabinoid receptor. Briefly: Alternate affinity test, [^3 H]CP-55,940, rat forebrain membrane, potassium diethyl malonate buffer with β-cyclodextrin. In kind it is binding. Particulars: 100 fmol/mL [^3 H]CP-55,940, 0.01% β-cyclodextrin, pH 7.4, 1 hour at 30° C. As to the method: An alternate affinity test used approximately 30 μg of rat forebrain membrane in a buffer containing 20 mM potassium diethyl malonate (pH 7.4), 3 mM MgCl2, 0.01% β-cyclodextrin, and 100 fmol/mL [^3 H]CP-55,940, (Dupont-NEN). The assays were incubated in Regisil-treated test tubes for 1 hour at 30° C. and were subsequently filtered on GF/C filters. Just prior to filtration, 200 μL of 50 mg/mL bovine serum albumin is added. Following filtration, ligand binding was counted on a Beckman liquid scintillation counter.
Non-specific binding was assessed from tubes containing 100 nM desacetyllevo-nantradol by the method described in W. A. Devane et al., Determination and Characterization of a Cannabinoid Receptor in Rat Brain, Mol. Pharmacol., 34:605 (1988).

Assay [8] addresses T1, cannabinoid receptor. The experiment in a line: Alternate receptor inactivation test (equilibration and UV irradiation), rat forebrain membrane. In kind it is binding. Particulars: 1 hour at 30° C., shortwave UV light. The protocol:
In an alternate receptor inactivation test, 0.5-3 mg of rat forebrain membrane was incubated with (-)5'-azido-Δ^8 -THC, previously resuspended in 5% β-cyclodextrin in 12-well tissue culture plates containing 1 mL of 20 mM potassium diethyl malonate (pH 7.4) and 0.01% β-cyclodextrin. The assay was incubated for 1 hour at 30° C. and then was placed on ice and irradiated for 13 minutes with shortwave UV light from a UVGL-25 mineralight at 10 cm distance […].

[9] abbreviates: milligram/kilogram basis, vs (-)-Δ^8 -THC.

SMILES strings stand for the structures.

T1 sequence (P20272 whole entry): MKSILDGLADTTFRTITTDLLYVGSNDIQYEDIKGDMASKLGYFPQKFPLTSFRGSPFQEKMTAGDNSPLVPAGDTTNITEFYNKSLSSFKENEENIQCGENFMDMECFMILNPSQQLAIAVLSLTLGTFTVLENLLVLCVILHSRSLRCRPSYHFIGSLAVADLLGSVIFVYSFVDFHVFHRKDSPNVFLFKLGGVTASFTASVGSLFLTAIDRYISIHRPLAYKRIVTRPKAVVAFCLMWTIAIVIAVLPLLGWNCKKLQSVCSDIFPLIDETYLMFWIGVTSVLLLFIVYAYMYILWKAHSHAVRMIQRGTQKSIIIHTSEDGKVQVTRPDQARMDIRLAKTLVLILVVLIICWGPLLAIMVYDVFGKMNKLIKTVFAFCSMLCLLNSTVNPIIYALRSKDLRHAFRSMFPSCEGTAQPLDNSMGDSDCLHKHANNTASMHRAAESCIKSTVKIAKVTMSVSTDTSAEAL

What is called ED50 is the dose at which the effect has come halfway, by size or by number of responders. For the compound `CCCCCc1cc(O)c2c(c1)OC(C)(C)[C@@H]1CC=C(C)C[C@@H]21` [(-)-Δ^8 -THC, reference compound], in assay [1], the ED50 is 1.9 mg/kg and the “Locomotion Inhibition, efficacy (maximum effect), percent inhibition” value was 79%. Also, in assay [2], the ED50 was determined as 15.5 mg/kg and the “Hypothermia (Δtemperature), efficacy (maximum effect)” value is -5.9 °C. Further, in assay [3], the ED50 stood at 5.2 mg/kg and the “Catalepsy Immobility, efficacy (maximum effect), percent immobility” value is 58%. Also, in assay [4], the median effective dose (ED50) was found to be 1.5 mg/kg and the “Antinociception, efficacy (maximum effect), percent MPE (maximum possible effect)” value amounted to 100%.
Broadly, the IC50 is the concentration at which inhibition is half-maximal. A lower IC50 goes with greater potency in that assay. Regarding `CC(C)(CCCCCCN=C=S)c1cc(O)c2c(c1)OC(C)(C)[C@@H]1CC=C(CO)C[C@@H]21` [11-hydroxy-7'-isothiocyanate-1',1'-dimethylheptyl-Δ^8 -THC], at cannabinoid receptor [5], the “affinity for the cannabinoid receptor (in words)” value was “high affinity” and the 50% inhibitory concentration (IC50) turned out to be 1.5 nM. In addition, the “ability to inactivate the cannabinoid receptor in vitro” value at cannabinoid receptor [6] is reported as “completely inactivate the cannabinoid receptor”.
`CC1=CC[C@@H]2[C@@H](C1)c1c(O)cc(CCCCCN=[N+]=[N-])cc1OC2(C)C` [(-)5'-azido-Δ^8 -THC]: in assay [1], the ED50 came out at 0.2 mg/kg and the “Locomotion Inhibition, efficacy (maximum effect), percent inhibition” value came to 73%. Also, in assay [2], the ED50 is 0.8 mg/kg and the “Hypothermia (Δtemperature), efficacy (maximum effect)” value is -3.8 °C. For the same compound, the “times more potent than the parent compound (hypothermia)” value in assay [2] (setting [9]) is recorded as 19 times. For the same compound, in assay [3], the median effective dose (ED50) was determined as 0.8 mg/kg and the “Catalepsy Immobility, efficacy (maximum effect), percent immobility” value stood at 57%. The “times more potent than the parent compound (catalepsy)” value in assay [3] (setting [9]) is reported as 6.5 times. In addition, in assay [4], the ED50 came to 0.1 mg/kg and the “Antinociception, efficacy (maximum effect), percent MPE (maximum possible effect)” value came to 100%. On cannabinoid receptor [7], this compound gave an IC50 of 31 nM. In addition, at cannabinoid receptor [8], the “irreversible inactivation of the receptors” value is “did not irreversibly inactivate the receptors”; the “specific receptor binding in equilibrated and irradiated membranes” value is “no specific receptor binding was observed”.
On to `CC(C)(CCCCCCN=[N+]=[N-])c1cc(O)c2c(c1)OC(C)(C)[C@@H]1CC=C(CO)C[C@@H]21` [11-hydroxy-7'-azido-1',1'-dimethylheptyl-Δ^8 -THC], for which, at cannabinoid receptor [5], the “affinity for the cannabinoid receptor (in words)” value is “high affinity” and the IC50 stood at 2.5 nM. In addition, the “ability to inactivate the cannabinoid receptor in vitro” value on cannabinoid receptor [6] is reported as “completely inactivate the cannabinoid receptor”.

These data come from patent publication US5872148A, “Compositions useful as a cannabinoid receptor probe” (University of Connecticut, priority 1995, dated 1999).
